Values of other authors in patent US7109191B2, “Benzazepinone alpha vintegrin receptor antagonists” (Merck & Co., Inc., priority 2001, dated 2006).

Tested on: postmenopausal osteoporotic women
Details: after a median of 22 months of treatment

For “hPTH(1–34): human parathyroid hormone 1–34 fragment (SVSEIQLMHNLGKHLNSMERVEWLRKKLQDVHNF; Parathyroid hormone; UniProt P01270 32-65, looked up, fragment)”, the “reduction in nonvertebral fractures” value is given as 54% and the “reduction in spine fractures” value is given as no less than 65%.
